Experimental data: patent US9050301B2, “Pharmaceutical composition for treatment of corneal endothelial wounds containing angiogenin” (Chung-Ang University Industry-Academy Cooperation Foundation, priority 2013, dated 2015)

Key:
[1] = tested on: rabbit corneal endothelium; experiment: Alizarin red S-staining of corneal endothelium wounded area; type: in vivo; details: for Corneal endothelium wounded area observed by alizarin red S-staining: 192 hours (8th day) after freeze damage, compared with control group (p=0.050); for Morphology (hexagonality) of endothelial cells around the wounded area: 192 hours, 200× magnification
Experimental: (§1) 30 eyeballs of 15 healthy white New Zealand rabbits weighing about 2.0 kg to about 3.0 kg without external opacification were anesthetized by intramuscular injection with 12.5 mg/kg of tiletamine/zolazepam (Zoletil®, VirbacLab, France) and 12.5 mg/kg of zylazine (Rompun®, BayerKorea, Korea). Afterwards, 0.5% povidone-iodine was used for disinfection of the whole range of experimental sight. Referring to FIG. 1, an 8 mm-diameter stainless steel rod as a probe was immersed in liquid nitrogen for 3 minutes, removed therefrom once the temperature of the liquid nitrogen reached −196° C., and brought into contact to the central cornea for 15 seconds. Then, each of the eyeballs was washed with 10 cc of 0.9% saline solution. In order to prevent the occurrence of corneal infection, the rabbit corneas were given instillation of Levofloxacin (Cravit®, Santen, Japan) three times a day for 3 days after the damage was induced.
(§2) 3 groups consisting of 10 eyeballs given instillation of angiogenin (200 μg/mL), 7 eyeballs given Y-27632 (10 mM) inhibitor of Rho-associated coiled-coil kinase (ROCK) pathway, and 7 eyeballs as a control group given phosphate-buffered solution (PBS) were each subjected to 50 μl of instillation at a time, and more particularly, 6 times a day for the first 2 days, and then, 4 times a day for the following 2 days, starting immediately after inducing freeze-damages to the trans-corneal endothelium. That is, the instillation was performed 20 times in total for 4 days.
Two eyeballs out of 30 eyeballs in total were each used as a negative control group of normal corneal endothelium and as a positive control group being subjected to alizarin red S-staining immediately after inducing freeze-damages to the trans-corneal endothelium. An overdose of KCl was administrated into the rest of the eyeballs by intramuscular injection 192 hours (8th day) after inducing freeze-damages to the trans-corneal, and accordingly, these eyeballs were sacrificed. Then, 3 eyeballs were removed for each of the control group, the group given angiogenin instillation, and the group given Y-27632 instillation. Then, the whole cornea was pulled off with respect to the corneal limbal boundary, immersed in 1% alizarin red S-staining solution (Lab Chem, Pittsburgh, USA) for 2 minutes, washed with 0.9% saline solution, and then, wet-mount with the endothelium facing upward. Images thereof were immediately obtained after observation by using an optical microscope, and then, the wounded area of the cornea was measured in pixels for a digital image at 40× magnification by using the Image J software (National Institutes of Health (NIH); http://rsbweb.nih.gov/ij/), and the endothelial cells around the wounded areas were observed and compared in terms of hexagonality at 200× magnification.

[2] = tested on: rabbit corneal endothelium; experiment: Central corneal thickness by ultrasonic pachymeter after trans-corneal freezing damage; type: in vivo
Experimental: as §1, §2
After inducing freeze-damages to trans-corneal of all the eyeballs from the group given instillation of angiogenin, the group given instillation of Y-27632, and the control group, the central corneal thickness was measured 3 times by using an ultrasonic corneal pachymeter (POCKET-II, Quantel medical, Clemont-Ferrand, France) at every 48 hours (2nd day), 72 hours (3rd day), 144 hours (6th day), and 192 hours (8th day), thereby calculating a mean value thereof. Here, the maximum measurable value of the ultrasonic corneal pachymeter was referred to 1,000 μm so the maximum corneal thickness was also considered as 1,000 μm.

[3] = tested on: rabbit corneal endothelial cells; experiment: In vitro scratch wound healing of cultured rabbit corneal endothelial cells; type: cell-based; details: for Wound healing index: angiogenin 2 μg/ml, mean ± SE
Experimental: A corneal endothelial tissue segment obtained from remaining corneal portions other than the central 8 mm corneal portion in cadaveric cornea donated for transplantation and a corneal endothelial tissue segment of a normal rabbit were cultured. Then, each of the corneal tissues was divided into 6 pieces and washed by shaking 6 times in a petri dish to which 7 ml of 5% penicillin/streptomycin (P/S) was added. Then, the washed tissues were each transferred to a 6-well dish such that the endothelial layer was facing down, and the tissues were semi-dried until the dishes were slightly drained. Next, the corneal endothelial cells of the rabbit cornea were cultured in a culture medium (EGM™-2BulletKit™, Lonza, Allendale, USA) containing human epidermal growth factor (hEGF), hydrocortisone, 5% fetal bovine serum (FBS), human […] (hFGF), insulin-like growth factor (IGF), ascorbic acid, gentamicin, and amphotericin-B (EGM™-2BulletKit™, Lonza, Allendale, USA), and the corneal endothelial cells of the human cornea were cultured in a culture medium (Opti-MEM®, Gibco®, New York, USA) supplemented with 8% FBS, calcium (CaCl2), chondroitinsulfate, ascorbic acid, multi-vitamin solution, gentamicin, anti-Pseudomonas aeruginosa antibiotic, pituitary extract, epidermal growth factor (EGF), and nerve growth factor (NGF), for about 5 to 7 days.
Experiments have been carried to identify angiogenin effects on migration and proliferation of the corneal endothelial cells. When the cultured rabbit corneal endothelial cells had about 80-90% confluency in three 6-well dishes, the central part of each well was scratched by a tip of a 200 μl pipette to make wounds. Then, each of the three 6-well dishes was replaced by a culture medium containing 1) 5% FBS (in the control group), 2) Y-27632 (10 μM), and 3) angiogenin (2 μg/ml). At every 0 hour, 12 hours, 24 hours, and 48 hours, digital images of the remaining wounded areas were obtained at 40× magnification of the optical microscope, and measured in pixels by using the Image J software. In addition, each of the three 6-well dishes containing the cultured corneal endothelial cells in the human was scratched in the same manner as described above to make wounds, and then, replaced by a culture medium containing 1) 5% FBS (in the control group), 2) Y-27632 (10 μM), and 3) angiogenin (5 μg/ml). At every 6 hours and 24 hours, the wounded areas were measured by using the Image J software. The ratio of initial wounded area versus recovered area was defined as wound healing index, which is calculated as shown below. Here, the initial wounded area was corrected to be equal before the calculation. Wound healing index(%)=(Initial wounded area−Remaining wounded area)/Initial wounded area

[4] = tested on: rabbit corneal endothelium; experiment: Ratio of corneas without opacity and edema (digital camera images) after trans-corneal freezing damage; type: in vivo; details: angiogenin 200 μg/mL
Experimental: as §1, §2
Then, the groups were subjected to the evaluation of corneal opacity and corneal edema by using a digital camera (VLUUNV100HD, Samsung, Suwon, Korea) to obtain images taken in a diagonal direction.
Experiments have been carried out to identify effects of angiogenin-induced PI3k-Akt signaling pathway in terms of recovering the corneal transparency after inducing damages to the corneal endothelium. After inducing freeze-damages to the corneal endothelium, 4 eyeballs out of 30 rabbit eyeballs in total were subjected to 50 μl of each of 200 μg/mL of angiogenin and 200 μM of PI3k-Akt pathway inhibitor, LY294002 instillation at a time every 3 minutes, and more particularly, 6 times a day for the first 2 days, and then, 4 times a day for the following one day. That is, the instillation was performed 16 times in total for 3 days.

[5] = 48 h after freeze damage, maximum measurable value 1,000 μm
[6] = 72 h after freeze damage, maximum measurable value 1,000 μm
[7] = 144 h after freeze damage, angiogenin 200 μg/mL, Y-27632 10 mM instillation, mean ± SE
[8] = 192 h after freeze damage, angiogenin 200 μg/mL, Y-27632 10 mM instillation, mean ± SE
[9] = 48 h after freeze damage, Y-27632 10 mM instillation
[10] = 72 h after freeze damage, Y-27632 10 mM, LY294002 200 μM instillation
[11] = 144 h after freeze damage, Y-27632 10 mM instillation
[12] = 192 h after freeze damage, Y-27632 10 mM instillation

Compound | Corneal endothelium wounded area observed by alizarin red S-staining [1] | Morphology (hexagonality) of endothelial cells around the wounded area [1] | Central corneal thickness ([2]; 0 h (baseline), mean ± SE) | Central corneal thickness [2, 5] | Central corneal thickness [2, 6] | Central corneal thickness [2, 7] | Central corneal thickness [2, 8] | Wound healing index compared with the control group ([3]; Y-27632 10 μM, 12, 24, 48 hours) | Ratio of number of cornea without opacity and edema (digital camera images) [4, 9] | Ratio of number of cornea without opacity and edema (digital camera images) [4, 10] | Ratio of number of cornea without opacity and edema (digital camera images) [4, 11] | Ratio of number of cornea without opacity and edema (digital camera images) [4, 12] | Central corneal thickness ([2]; 144 h after freeze damage, angiogenin 200 μg/mL, Y-27632 10 mM instillation, mean ± SE, listed as angiogenin) | Central corneal thickness ([2]; 192 h after freeze damage, angiogenin 200 μg/mL, Y-27632 10 mM instillation, mean ± SE, listed as angiogenin) | Wound healing index ([3]; 12 hours) | Wound healing index ([3]; 24 hours) | Wound healing index ([3]; 48 hours)
C[C@@H](N)[C@H]1CC[C@H](C(=O)Nc2ccncc2)CC1 [Y-27632, reference compound] | smaller wounded areas than those of the control group | significant modification of cell morpology | 361.7 ± 3.4 μm | >1,000 μm | >1,000 μm | 571.6 ± 43.0 μm | 432.5 ± 332.2 μm | did not show significant difference | 0% | 14.3% | 14.3% | 14.3% |  |  |  |  | 
Angiogenin: 14.4-kDa single chain protein of 123 amino acids, secreted protein capable of inducing angiogenesis | smallest the corneal endothelium wounded area | corneal endothelial cells in even hexagonality | 350.4 ± 6.2 μm | >1,000 μm | >1,000 μm | 503.0 ± 21.1 μm | 390.3 ± 10.5 μm |  | 10% | 20% | 37.5% | 50% | about 503.0±21.07 μm | about 390.3±10.55 μm | 28.7±2.9% | 66.7±4.3% | 78.7±2.9%
